Assay results from patent publication US20230009608A1, “GRK2 INHIBITORS AND USES THEREOF” (Cygnal Therapeutics, Inc., priority 2020, published 2023).
Like-named read-outs stand apart in the source and are kept apart here.

Biological target: T1, GRK2 (Homo sapiens, UniProt P25098)
T1 construct: purchased SignalChem A14-10G
T1 sequence (P25098 1-689): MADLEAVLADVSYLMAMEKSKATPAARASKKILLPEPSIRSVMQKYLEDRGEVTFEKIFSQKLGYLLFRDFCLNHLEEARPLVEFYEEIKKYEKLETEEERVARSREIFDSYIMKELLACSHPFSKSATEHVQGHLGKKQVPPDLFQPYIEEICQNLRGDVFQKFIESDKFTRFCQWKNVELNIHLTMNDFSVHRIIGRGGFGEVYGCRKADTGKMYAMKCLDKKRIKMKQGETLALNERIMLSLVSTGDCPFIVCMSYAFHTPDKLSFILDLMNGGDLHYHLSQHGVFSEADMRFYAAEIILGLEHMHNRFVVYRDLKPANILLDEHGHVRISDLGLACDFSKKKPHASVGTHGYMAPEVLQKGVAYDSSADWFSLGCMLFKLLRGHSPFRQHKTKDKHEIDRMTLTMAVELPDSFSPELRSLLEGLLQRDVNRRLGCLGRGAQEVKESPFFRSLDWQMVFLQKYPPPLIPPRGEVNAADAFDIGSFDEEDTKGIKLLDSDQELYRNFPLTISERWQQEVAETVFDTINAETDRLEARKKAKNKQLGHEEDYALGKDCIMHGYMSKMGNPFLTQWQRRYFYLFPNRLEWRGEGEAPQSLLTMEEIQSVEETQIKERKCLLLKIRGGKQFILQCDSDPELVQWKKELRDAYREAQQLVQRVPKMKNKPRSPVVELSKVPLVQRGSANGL
Experiment: GRK2 Inhibition Assay (TR-FRET, Example 7)
Type: biochemical
Experimental: Enzyme GRK2 (1 nM final concentration) was diluted in 25 mMv HEPES, 10 mM MgCl2, 2 mM DTT, 0.01% Tween-20, and 1 mM EGTA. Then the GRK2 mixture was added into ProxiPlate-384 white plate and pre-incubated for 30 min with test compounds at room temperature. ATP (7 μM final concentration) and Ulight TopoIIα (50 nM final concentration) were added into the assay plate to initiate the reaction and the mixture was incubated at room temperature for 90 min. Then, Eu anti-TopoIIα (0.12 nM final concentration), BSA (0.01% final concentration), and EDTA (11 mMv final concentration) in LANCE assay buffer were added into each well. After 60 min incubation time at room temperature, TR-FRET signal was measured by EnVision plate reader.

[1] = TR-FRET GRK2 enzyme assay, read-out: B: Enzymatic GRK2: IC50 (nM) (Example 7)
[2] = Enzyme Assay B, TR-FRET (Example 7), read-out: B: Enzymatic GRK2: IC50 (nM) (Example 7)

SMILES | IC50 [1] [nM] | IC50 [2] [nM] | also measured
CCc1cnccc1CNC(=O)c1cccc(NCc2nnc(-c3ccncn3)n2[C@@H]2CC[C@@H](NC)C2)c1 | 230 | – | –
CCc1cnccc1CNC(=O)c1cccc(NCc2nnc(-c3ccncn3)n2[C@H]2CC[C@H](NC)C2)c1 | 920 | – | –
COc1ccc([C@@H](C#N)NC(=O)c2cccc(NCc3nnc(-c4ccncn4)n3C)c2)c(OC)c1 | 7.8 | – | –
COc1ccccc1[C@H](NC(=O)c1cccc(NCc2nnc(-c3ccncn3)n2C)c1)c1nccn1C | 100 | – | –
Cn1c(CNc2cc(C(=O)NCc3cccc4c3OCC4)ccn2)nnc1-c1ccncn1 | – | 12 | –
CCc1cnccc1CNC(=O)c1cccc(NCc2nnc(-c3ccncn3)n2CCCO)c1 | – | 5.5 | –
COc1ccc([C@H](C#N)NC(=O)c2cccc(NCc3nnc(-c4ccncn4)n3C)c2)c(OC)c1 | 68 | – | –
Cn1c(CNc2cccc(C(=O)N[C@H](C#N)c3c(F)cccc3Cl)c2)nnc1-c1ccncn1 | 5.7 | – | –
Cn1c(CNc2cccc(C(=O)N[C@H]3CCOc4ccccc43)c2)nnc1-c1ccncc1Cl | – | 170 | –
O=C(NC1(c2ccccc2)CCOCC1)c1cccc(NCc2nnc(-c3ccncc3)n2CCO)c1 | – | 130 | –
Cn1c(CNc2cccc(C(=O)N[C@H](C#N)c3ccccc3Br)c2)nnc1-c1ccncn1 | 4.5 | – | –
CCc1cnccc1CNC(=O)c1cccc(NCc2nnc(-c3ccncn3)n2[C@H]2CC[C@@H](NC)C2)c1 | 190 | – | –
O=C(NC1(c2ccccc2)CCOCC1)c1cccc(NCc2nnc(-c3ccncc3)[nH]2)c1 | – | 330 | –
CCc1cnccc1CNC(=O)c1cccc(NCc2nnc(-c3ccncn3)n2[C@@H]2CC[C@H](NC)C2)c1 | 110 | – | –
COc1ncccc1CNC(=O)c1cccc(NCc2nnc(-c3ccncn3)n2CCO)c1 | – | 2.4 | –
CNCCCn1c(CNc2cccc(C(=O)NCc3cccnc3C(F)(F)F)c2)nnc1-c1ccncn1 | – | 280 | –

SMILES | IC50 [1] [nM] | IC50 [2] [nM] | also measured
Cn1c(CNc2cccc(C(=O)N[C@H]3COc4ccccc43)c2)nnc1-c1ccncn1 [drawing 850] | 3.4 | – | –
Cn1c(CNc2cccc(C(=O)N[C@@H]3COc4c(Cl)cccc43)c2)nnc1-c1ccncn1 | 28 | – | –
O=C(NCc1c(F)cccc1F)c1cccc(NCc2nnc(-c3ccncn3)n2CCCO)c1 | – | 47 | –
CN(Cc1cccnc1C(F)(F)F)C(=O)c1cccc(NCc2nnc(-c3ccncn3)n2C)c1 | – | > 10000 | –
CCc1cnccc1CNC(=O)c1cccc(NCc2nnc(-c3ccncn3)n2[C@H]2CCC[C@@H](NC)C2)c1 | 3900 | – | –
CNCCn1c(CNc2cccc(C(=O)NCc3c(F)cccc3F)c2)nnc1-c1ccncn1 | – | 1400 | –
CCc1cnccc1CNC(=O)c1cccc(NCc2nnc(-c3ccncn3)n2CCO)c1 | – | 0.82 | –
CN(C)CCCn1c(CNc2cccc(C(=O)NCc3c(F)cccc3F)c2)nnc1-c1ccncn1 | – | 170 | –
Cn1c(CNc2cccc(C(=O)N[C@H]3COc4c(Cl)cccc43)c2)nnc1-c1ccncn1 | 7.8 | – | –
O=C(NCCc1cccc(OS(=O)(=O)F)c1)c1cccc(NCc2nnc(-c3ccncc3)[nH]2)c1 | – | – | IC50: 210 nM
Cn1c(CNc2cccc(C(=O)N[C@@H](C#N)c3ccccc3Br)c2)nnc1-c1ccncn1 | 4.1 | – | –
Cn1c(CNc2cccc(C(=O)N[C@@H](C#N)c3c(F)cccc3Cl)c2)nnc1-c1ccncn1 | 5.1 | – | –
CNCCCn1c(CNc2cccc(C(=O)NCc3c(F)cccc3F)c2)nnc1-c1ccncn1 | – | 660 | –
CNc1cc(-c2nnc(CNc3cccc(C(=O)NCc4c(F)cccc4F)c3)n2C)ncn1 | – | 4400 | –
Cn1c(CNc2cccc(C(=O)N[C@@H](C#N)c3ccccc3C(F)(F)F)c2)nnc1-c1ccncn1 | 3.5 | – | –
